Assay results published in US11236055B2 (Venenum Biodesign, LLC, priority 2016, dated 2022).
pEC50: −log10 of the molar value. Where a name gives a salt, the structure may show the parent alone.

Columns and labels:
mouse TGR5 receptor = molecular target: T1, mouse TGR5 receptor (Mus musculus, UniProt Q80SS6); assay: Mouse TGR5 cAMP production assay (HTRF, Cisbio cAMP HiRange); type: cell-based; conditions: HEK293-EBNA cells overexpressing mouse TGR5, HTRF cAMP HiRange; coded A-D
T1 construct: expressed in transfected cells; host or cells: HEK293-EBNA (293 c18, ATCC CRL10852), Hygromycin B selection
T1 sequence (Q80SS6 1-329): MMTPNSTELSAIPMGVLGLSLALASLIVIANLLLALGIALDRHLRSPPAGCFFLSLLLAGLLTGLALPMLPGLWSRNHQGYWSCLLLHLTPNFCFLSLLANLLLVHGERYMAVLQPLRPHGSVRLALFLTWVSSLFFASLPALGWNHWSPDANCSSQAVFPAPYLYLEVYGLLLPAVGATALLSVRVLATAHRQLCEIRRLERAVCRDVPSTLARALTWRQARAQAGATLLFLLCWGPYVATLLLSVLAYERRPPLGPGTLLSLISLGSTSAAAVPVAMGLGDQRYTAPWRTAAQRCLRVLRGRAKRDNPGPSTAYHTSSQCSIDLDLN
Outline: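 cAMP read by HTRF competition after 1 h room-temperature compound exposure of mouse TGR5-overexpressing HEK293-EBNA cells. Cells were suspended in serum-free DMEM containing 500 μM IBMX; compounds ran as 12-point half-log dilutions in duplicate; EC50 derived.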

human TGR5 receptor = molecular target: T2, human TGR5 receptor (Homo sapiens, UniProt Q8TDU6); assay: Human TGR5 cAMP production assay; type: cell-based; conditions: human TGR5, luminescent cAMP assay; coded A-D; read-out: Human TGR5 Lum. cAMP Activity (EC50)
T2 construct: host or cells: CHO-K1 (hTGR5-CHO cells)
T2 sequence (Q8TDU6 1-330): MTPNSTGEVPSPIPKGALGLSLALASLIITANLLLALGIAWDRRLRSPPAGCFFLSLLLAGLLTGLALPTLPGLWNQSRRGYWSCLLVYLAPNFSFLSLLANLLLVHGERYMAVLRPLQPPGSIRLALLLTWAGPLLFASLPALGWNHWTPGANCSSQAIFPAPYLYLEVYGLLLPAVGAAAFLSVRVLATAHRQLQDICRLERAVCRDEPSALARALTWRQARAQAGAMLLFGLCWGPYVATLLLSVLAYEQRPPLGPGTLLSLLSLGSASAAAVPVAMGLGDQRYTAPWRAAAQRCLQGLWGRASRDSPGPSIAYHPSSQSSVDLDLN
Outline: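 Intracellular cAMP read by luminescent enzyme-complementation (XS+) after overnight development, following 1 h room-temperature compound treatment of hTGR5-CHO-K1 cells in IBMX plus anti-cAMP antibody. Compounds tested as half-log dilution series; EC50 derived.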

Row | pEC50 (mouse TGR5 receptor) | pEC50 (human TGR5 receptor) | SMILES
1 | 6.00 to 7.00 | 6.00 to 7.00 | Cc1cnccc1-c1cccc([C@H](C)N(CCOCC(=O)NCCS(=O)(=O)O)S(=O)(=O)c2cccc(Cl)c2C)c1 [Compound 21AO, (S)-2-(2-(2-(3-Chloro-2-methyl-N-(1-(3-(3-methylpyridin-4-yl)phenyl)ethyl)phenylsulfonamido)ethoxy)acetamido)ethanesulfonic acid]
2 | > 7.00 | > 7.00 | CCc1cnccc1-c1cccc([C@H](C)N(CCCC(=O)NCCNS(=O)(=O)NCC(=O)O)S(=O)(=O)c2cccc(Cl)c2C)c1 [Compound 38AA, (S)-2-((N-(2-(4-(3-chloro-N-(1-(3-(3-ethylpyridin-4-yl)phenyl)ethyl)-2-methylphenylsulfonamido)butanamido)ethyl)sulfamoyl)amino)acetic acid]
3 | > 7.00 | 6.00 to 7.00 | CCc1cnccc1-c1cccc([C@H](C)N(CCCCN)S(=O)(=O)c2cccc(Cl)c2C)c1 [Compound 24AC, (S)-N-(4-aminobutyl)-3-chloro-N-(1-(3-(3-ethylpyridin-4-yl)phenyl)ethyl)-2-methylbenzenesulfonamide]
4 | > 7.00 | > 7.00 | CCc1cnccc1-c1cccc([C@H](C)N(CCCC(=O)O)S(=O)(=O)c2ccccc2C(F)(F)F)c1 [Compound 15AB, (S)-4-(N-(1-(3-(3-ethylpyridin-4-yl)phenyl)ethyl)-2-(trifluoromethyl)phenylsulfonamido)butanoic acid]
5 | > 7.00 | > 7.00 | CCc1cnccc1-c1cccc([C@H](C)N(CCCC(=O)NCS(=O)(=O)O)S(=O)(=O)c2cccc(Cl)c2C)c1 [Compound 21AR, (S)-(4-(3-chloro-N-(1-(3-(3-ethylpyridin-4-yl)phenyl)ethyl)-2-methylphenylsulfonamido)butanamido)methanesulfonic acid]
6 | 4.52 to 6.00 | 6.00 to 7.00 | Cc1cnccc1-c1cccc([C@H](C)NS(=O)(=O)c2ccccc2N)c1 [Compound 10AA, (S)-2-amino-N-(1-(3-(3-methylpyridin-4-yl)phenyl)ethyl)benzenesulfonamide]
7 | 6.00 to 7.00 | 6.00 to 7.00 | Cc1cnccc1-c1cccc([C@H](C)N(CCCC(=O)O)S(=O)(=O)c2ccccc2C)c1 [Compound 16AD, (S)-4-(2-methyl-N-(1-(3-(3-methylpyridin-4-yl)phenyl)-ethyl)phenylsulfonamido)butanoic acid]
8 | > 7.00 | 6.00 to 7.00 | Cc1cnccc1-c1cccc([C@H](C)N(CCC(=O)NCCS(=O)(=O)O)S(=O)(=O)c2cccc(Cl)c2C)c1 [Compound 20BV, (S)-2-(3-(3-chloro-2-methyl-N-(1-(3-(3-methylpyridin-4-yl)phenyl)ethyl)phenylsulfonamido)propanamido)ethanesulfonic acid]
9 | 6.00 to 7.00 | 6.00 to 7.00 | Cc1c(Cl)cccc1S(=O)(=O)N(CCCC(=O)O)[C@@H](C)c1cccc(-c2ccncc2)c1 [Compound 14AD, (S)-4-(3-chloro-2-methyl-N-(1-(3-(pyridin-4-yl)phenyl)ethyl)phenylsulfonamido)butanoic acid]
10 | 4.52 to 6.00 | 6.00 to 7.00 | Cc1ccccc1S(=O)(=O)N(CCCC(=O)NCCS(=O)(=O)O)[C@@H](C)c1cccc(-c2ccncc2O)c1 [Compound 22AA, (S)-2-(4-(N-(1-(3-(3-hydroxypyridin-4-yl)phenyl)ethyl)-2-methylphenylsulfonamido)butanamido)ethanesulfonic acid]
11 | 6.00 to 7.00 | 6.00 to 7.00 | Cc1cnccc1-c1cccc([C@H](CCCC(=O)NCS(=O)(=O)O)NS(=O)(=O)c2ccccc2C(F)(F)F)c1 [Compound 20BR, (S)-(5-(3-(3-methylpyridin-4-yl)phenyl)-5-(2-(trifluoromethyl)phenylsulfonamido)pentanamido)methanesulfonic acid]
12 | 4.52 to 6.00 | 6.00 to 7.00 | Cc1cnccc1-c1cccc([C@@H](C)N(CCCC(=O)O)S(=O)(=O)c2cccc(Cl)c2C)c1 [Compound 16AA, (R)-4-(3-chloro-2-methyl-N-(1-(3-(3-methylpyridin-4-yl)-phenyl)ethyl)phenylsulfonamido)butanoic acid]
13 | 6.00 to 7.00 | > 7.00 | Cc1cnccc1-c1cccc([C@H](C)N(CCCC(=O)NCCC(=O)O)S(=O)(=O)c2cccc(Cl)c2C)c1 [Compound 21AH, (S)-3-(4-(3-chloro-2-methyl-N-(1-(3-(3-methylpyridin-4-yl)phenyl)ethyl)phenylsulfonamido)butanamido)propanoic acid]

Second part, the molecule before the results:

Row | SMILES | pEC50 (mouse TGR5 receptor) | pEC50 (human TGR5 receptor)
14 | CC[C@H](NS(=O)(=O)c1ccccc1C(F)(F)F)c1cccc(-c2ccc3nccn3c2)c1 [Compound 5AX, (S)-N-(1-(3-(imidazo[1,2-a]pyridin-6-yl)phenyl)propyl)-2-(trifluoromethyl)benzenesulfonamide] | 4.52 to 6.00 | 4.52 to 6.00
15 | Cc1cnccc1-c1cccc(C2CN(C(=O)OC(C)(C)C)CCN2S(=O)(=O)c2ccccc2C(F)(F)F)c1 (racemic) [Compound 42, (+/−) tert-butyl 3-(3-(3-methylpyridin-4-yl)phenyl)-4-((2-(trifluoromethyl)phenyl)sulfonyl)-piperazine-1-carboxylate] | 4.52 to 6.00 | 4.52 to 6.00
16 | Cc1cnccc1-c1cccc([C@@H](C)NS(=O)(=O)c2ccccc2C(F)(F)F)c1 [Compound 5AT, (R)-N-(1-(3-(3-methylpyridin-4-yl)phenyl)ethyl)-2-(trifluoromethyl)benzenesulfonamide] | 6.00 to 7.00 | > 7.00
17 | CCc1cnccc1-c1cccc(C2CN(C(=O)[C@@H](N)CS(=O)(=O)O)CCN2S(=O)(=O)c2cccc(Cl)c2C)c1 (mixture of isomers) [Compound 48, (2R)-2-amino-3-(4-((3-chloro-2-methylphenyl)sulfonyl)-3-(3-(3-ethylpyridin-4-yl)phenyl)piperazin-1-yl)-3-oxopropane-1-sulfonic acid hydrochloride] | > 7.00 | 6.00 to 7.00
18 | CC(C)(NS(=O)(=O)c1ccccc1C(F)(F)F)c1cccc(-c2ccncc2CO)c1 [Compound 5AN, N-(2-(3-(3-(hydroxymethyl)pyridin-4-yl)phenyl)propan-2-yl)-2-(trifluoromethyl)benzenesulfonamide] | 6.00 to 7.00 | > 7.00
19 | CC(C)(NS(=O)(=O)c1cccc(C(F)(F)F)c1)c1cccc(-c2ccncc2CO)c1 [Compound 5AE, N-(2-(3-(3-(hydroxymethyl)-pyridin-4-yl)phenyl)propan-2-yl)-3-(trifluoromethyl)benzenesulfonamide] | 4.52 to 6.00 | > 7.00
20 | CCc1cnccc1-c1cc(OC)cc(C(C)(C)NS(=O)(=O)c2ccccc2C(F)(F)F)c1 [Compound 2CD] | 6.00 to 7.00 | 6.00 to 7.00
21 | Cc1cnccc1-c1cccc(C(C)(C)NS(=O)(=O)c2ccccc2[N+](=O)[O-])c1 [Compound 5AP, N-(2-(3-(3-methylpyridin-4-yl)phenyl)propan-2-yl)-2-nitrobenzenesulfonamide] | 6.00 to 7.00 | > 7.00
22 | CCc1cnccc1-c1cccc(C(C)(C)NS(=O)(=O)c2cccc(Cl)c2C)c1 [Compound 2BY] | > 7.00 | > 7.00
23 | CC(=O)N1CCN(S(=O)(=O)c2ccccc2C(F)(F)F)C(c2cccc(-c3ccncc3C)c2)C1 (stereo not shown) [Compound 45, 1-(3-(3-(3-methylpyridin-4-yl)phenyl)-4-((2-(trifluoromethyl)phenyl)sulfonyl)piperazin-1-yl)ethanone] | > 7.00 | 6.00 to 7.00
24 | CC[C@H](NS(=O)(=O)c1ccccc1C(F)(F)F)c1cccc(-c2ccncc2OC)c1 [Compound 1CD] | 6.00 to 7.00 | > 7.00
25 | Cc1cnccc1-c1cccc(C(CCC#N)NS(=O)(=O)c2ccccc2C(F)(F)F)c1 (stereo not shown) [Compound 6AD, N-(3-cyano-1-(3-(3-methylpyridin-4-yl)phenyl)-propyl)-2-(trifluoromethyl)benzenesulfonamide] | 6.00 to 7.00 | > 7.00
26 | COc1cnccc1-c1cccc(C(C)(C)NS(=O)(=O)c2ccc(C(F)(F)F)cc2[N+](=O)[O-])c1 [Compound 2BJ] | 4.52 to 6.00 | > 7.00
27 | CN(C)C(=O)c1cnccc1-c1cccc(C(C)(C)NS(=O)(=O)c2ccccc2C(F)(F)F)c1 [Compound 11, N,N-dimethyl-4-(3-(2-(2-(trifluoromethyl)phenylsulfonamido)propan-2-yl)phenyl)nicotinamide] | 4.52 to 6.00 | 4.52 to 6.00
28 | COc1cnccc1-c1cccc(C(C)(C)NS(=O)(=O)c2cc(C(F)(F)F)ccc2C(F)(F)F)c1 [Compound 2BK] | 4.52 to 6.00 | 6.00 to 7.00
29 | Cc1cnccc1-c1cccc(C(C)(C)NS(=O)(=O)c2cccc(Cl)c2C)c1 [Compound 2BU] | > 7.00 | > 7.00
